2 compounds from patent US3998963A, “Tertiary butyl substituted carbamoyl oxime pesticides” (priority 1975, dated 1976) can be followed below.

Series [1] deals with tomato. The experiment in a line: Phytotoxicity Test, tomato. The class given is in vivo. The settings on record: 2500 parts per million; ten days. The protocol: (§1) Suspensions of the test compouns were prepared by dissolving one gram of compound in 50 milliliters of acetone in which had been dissolved 0.1 gram (10 percent of the weight of compound) of an alkylphenoxy polyethoxyethanol surfactant, as an emulsifying or dispersing agent. The resulting solution was mixed into 150 milliliters of water to give roughly 200 milliliters of a suspension containing the compound in finely divided form. The thus-prepared stock suspension contained 0.5 percent by weight of compound. The test concentrations in parts per million by weight employed in the tests described hereinbelow were obtained by appropriate dilutions of the stock suspension with water. The test procedures were as follows:
(§2) Experiments were also conducted to determine the phytotoxicity of representative compositions with respect to healthy fresh plants. Solutions of the compounds were prepared as described above to provide a concentration of 2500 parts per million of the test compound. The test plants were sprayed in accordance with the procedure described above for the Mite Foliage Spray Test so as to deliver approximately 100 milliliters of test solution to the leaves of each plant tested. The sprayed plants and controls were set aside for approximately one hour to allow the foliage to dry and were then placed in the greenhouse. […]

In series [2] the test system is corn. The series can be described thus: Phytotoxicity Test, corn. To be noted: 2500 parts per million; ten days. The class given is in vivo. The protocol: as §1, §2

Take `CCSC(C)=NOC(=O)NC` [Compound 3]: the “Phytotoxicity, Tomato” value in series [1] was 2.

`CNC(=O)ON=C(C)SC(C)C` [Compound 2]: the “Phytotoxicity, Corn” value in series [2] is on record as “Bu 2”.
